From publication PMC5862592, “CDK8/19 inhibition induces premature G1/S transition and ATR-dependent cell death in prostate cancer cells” (Oncotarget, 2018)
Like-named read-outs stand apart in the source and are kept apart here.

Key:
Assay in all cases: biochemical
Parameters in all cases: KINOMEscan active site-directed competition binding assay (DiscoveRx), 456 kinases, per cent of control at 300 nM
Details in all cases: read-out: Percent of Control (%)
[1] = molecular target: NEK11 (Homo sapiens, UniProt Q8NG66)
In short: (§1)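 Values reflect active-site competition binding from a screen of 456 kinases, with test compounds at a fixed 300 nmol/L.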

[2] = molecular target: T1, RIPK5 (Homo sapiens, UniProt Q6XUX3)
T1 construct: gene DSTYK
In short: as §1

[3] = molecular target: KIT-autoinhibited (Homo sapiens, UniProt P10721)
In short: as §1

[4] = molecular target: PAK1 (Homo sapiens, UniProt Q13153)
In short: as §1

[5] = molecular target: T2, SIK (Homo sapiens, UniProt P57059)
T2 construct: gene SIK1
In short: as §1

[6] = molecular target: TNIK (Homo sapiens, UniProt Q9UKE5)
In short: as §1

[7] = molecular target: FRK (Homo sapiens, UniProt P42685)
In short: as §1

[8] = molecular target: MYLK (Homo sapiens, UniProt Q15746)
In short: as §1

[9] = molecular target: ACVR1 (Homo sapiens, UniProt Q04771)
In short: as §1

[10] = molecular target: HCK (Homo sapiens, UniProt P08631)
In short: as §1

[11] = molecular target: T3, VEGFR2 (Homo sapiens, UniProt P35968)
T3 construct: gene KDR
In short: as §1

[12] = molecular target: T4, ABL1(T315I)-nonphosphorylated (Homo sapiens, UniProt P00519, T315I)
T4 construct: nonphosphorylated
In short: as §1

[13] = molecular target: ACVR2A (Homo sapiens, UniProt P27037)
In short: as §1

[14] = molecular target: T5, IKK-beta (Homo sapiens, UniProt O14920)
T5 construct: gene IKBKB
In short: as §1

[15] = molecular target: PIK3CA(E542K) (Homo sapiens, UniProt P42336, E542K)
In short: as §1

[16] = molecular target: MAP3K1 (Homo sapiens, UniProt Q13233)
In short: as §1

[17] = molecular target: PIM1 (Homo sapiens, UniProt P11309)
In short: as §1

[18] = molecular target: CDKL1 (Homo sapiens, UniProt Q00532)
In short: as §1

[19] = molecular target: MAPKAPK5 (Homo sapiens, UniProt Q8IW41)
In short: as §1

[20] = molecular target: T6, JAK3(JH1domain-catalytic) (Homo sapiens, UniProt P52333)
T6 construct: JH1domain-catalytic
In short: as §1

[21] = molecular target: EPHB2 (Homo sapiens, UniProt P29323)
In short: as §1

[22] = molecular target: T7, p38-gamma (Homo sapiens, UniProt P53778)
T7 construct: gene MAPK12
In short: as §1

HCK, sequence (P08631 whole entry): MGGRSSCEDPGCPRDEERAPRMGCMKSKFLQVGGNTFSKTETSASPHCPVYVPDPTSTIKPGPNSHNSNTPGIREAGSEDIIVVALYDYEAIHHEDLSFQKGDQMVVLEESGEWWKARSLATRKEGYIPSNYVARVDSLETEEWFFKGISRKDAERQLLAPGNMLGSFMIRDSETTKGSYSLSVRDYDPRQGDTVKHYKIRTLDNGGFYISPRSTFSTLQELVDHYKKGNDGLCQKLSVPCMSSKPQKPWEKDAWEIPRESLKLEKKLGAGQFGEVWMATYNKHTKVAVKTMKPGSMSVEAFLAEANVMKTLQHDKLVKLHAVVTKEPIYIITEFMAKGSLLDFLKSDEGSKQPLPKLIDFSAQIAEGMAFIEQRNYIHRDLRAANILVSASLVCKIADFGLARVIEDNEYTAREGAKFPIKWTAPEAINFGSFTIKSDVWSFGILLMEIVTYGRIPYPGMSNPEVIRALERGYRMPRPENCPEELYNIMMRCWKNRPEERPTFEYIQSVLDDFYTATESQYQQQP
EPHB2, sequence (P29323 whole entry): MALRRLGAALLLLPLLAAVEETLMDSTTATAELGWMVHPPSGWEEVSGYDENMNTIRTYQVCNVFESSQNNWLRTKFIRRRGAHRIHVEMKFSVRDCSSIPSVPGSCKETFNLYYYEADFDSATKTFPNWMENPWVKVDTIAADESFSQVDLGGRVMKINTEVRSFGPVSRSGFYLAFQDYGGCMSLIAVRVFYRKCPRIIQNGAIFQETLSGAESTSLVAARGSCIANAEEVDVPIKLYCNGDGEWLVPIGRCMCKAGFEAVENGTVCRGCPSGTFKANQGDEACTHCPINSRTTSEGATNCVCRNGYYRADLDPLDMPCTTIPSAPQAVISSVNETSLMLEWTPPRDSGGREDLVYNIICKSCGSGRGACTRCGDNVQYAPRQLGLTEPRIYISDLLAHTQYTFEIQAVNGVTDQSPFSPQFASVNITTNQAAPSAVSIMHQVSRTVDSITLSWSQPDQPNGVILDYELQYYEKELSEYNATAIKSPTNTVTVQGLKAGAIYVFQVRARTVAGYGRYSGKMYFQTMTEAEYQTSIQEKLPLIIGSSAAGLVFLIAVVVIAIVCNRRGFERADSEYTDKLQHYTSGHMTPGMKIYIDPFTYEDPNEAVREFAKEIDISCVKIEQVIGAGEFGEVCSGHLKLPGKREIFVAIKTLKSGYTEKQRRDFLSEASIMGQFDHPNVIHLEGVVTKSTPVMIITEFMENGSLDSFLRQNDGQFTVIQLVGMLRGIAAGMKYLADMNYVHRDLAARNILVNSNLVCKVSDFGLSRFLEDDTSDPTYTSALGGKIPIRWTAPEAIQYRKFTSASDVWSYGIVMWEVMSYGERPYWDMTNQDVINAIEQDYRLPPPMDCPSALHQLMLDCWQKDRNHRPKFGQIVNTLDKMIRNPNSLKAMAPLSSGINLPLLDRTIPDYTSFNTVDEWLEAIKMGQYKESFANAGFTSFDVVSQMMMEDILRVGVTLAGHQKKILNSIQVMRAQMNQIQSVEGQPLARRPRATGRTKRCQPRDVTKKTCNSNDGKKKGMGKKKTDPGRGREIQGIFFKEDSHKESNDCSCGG
TNIK, sequence (Q9UKE5 whole entry): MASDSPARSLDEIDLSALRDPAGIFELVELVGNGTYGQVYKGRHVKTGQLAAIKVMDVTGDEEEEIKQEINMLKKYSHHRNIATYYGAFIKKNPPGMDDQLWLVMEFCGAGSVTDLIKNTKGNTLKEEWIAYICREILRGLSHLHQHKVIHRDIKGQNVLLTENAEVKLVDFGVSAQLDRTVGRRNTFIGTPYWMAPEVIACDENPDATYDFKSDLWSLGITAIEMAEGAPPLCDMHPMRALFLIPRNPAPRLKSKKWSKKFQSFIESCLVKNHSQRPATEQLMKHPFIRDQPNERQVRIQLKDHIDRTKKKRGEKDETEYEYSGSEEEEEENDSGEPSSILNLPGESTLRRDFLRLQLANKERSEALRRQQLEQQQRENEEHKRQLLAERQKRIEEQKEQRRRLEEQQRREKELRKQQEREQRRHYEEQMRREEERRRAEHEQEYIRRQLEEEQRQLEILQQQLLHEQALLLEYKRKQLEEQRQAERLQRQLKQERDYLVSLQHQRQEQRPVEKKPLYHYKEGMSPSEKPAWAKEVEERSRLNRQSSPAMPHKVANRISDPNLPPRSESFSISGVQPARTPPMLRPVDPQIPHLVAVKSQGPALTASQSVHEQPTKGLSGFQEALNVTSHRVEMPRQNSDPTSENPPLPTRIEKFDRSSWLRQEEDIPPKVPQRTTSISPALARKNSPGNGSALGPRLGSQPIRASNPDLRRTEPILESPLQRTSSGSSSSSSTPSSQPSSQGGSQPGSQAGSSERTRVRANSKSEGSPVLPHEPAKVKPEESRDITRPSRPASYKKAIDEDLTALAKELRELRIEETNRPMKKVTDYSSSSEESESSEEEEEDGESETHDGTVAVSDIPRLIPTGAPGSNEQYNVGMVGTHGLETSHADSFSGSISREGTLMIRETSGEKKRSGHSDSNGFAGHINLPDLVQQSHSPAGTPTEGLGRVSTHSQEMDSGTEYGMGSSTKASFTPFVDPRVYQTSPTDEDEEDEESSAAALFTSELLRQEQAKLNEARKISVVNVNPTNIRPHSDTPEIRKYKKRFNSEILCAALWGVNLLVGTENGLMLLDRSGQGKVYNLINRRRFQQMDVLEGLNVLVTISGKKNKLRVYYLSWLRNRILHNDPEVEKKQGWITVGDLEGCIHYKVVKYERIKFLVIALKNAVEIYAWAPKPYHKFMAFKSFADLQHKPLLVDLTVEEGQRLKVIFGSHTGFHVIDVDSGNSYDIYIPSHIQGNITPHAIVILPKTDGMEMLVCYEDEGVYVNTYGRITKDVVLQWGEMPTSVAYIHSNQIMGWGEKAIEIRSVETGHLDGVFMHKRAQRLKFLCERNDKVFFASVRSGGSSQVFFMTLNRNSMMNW
T1 sequence (Q6XUX3 whole entry): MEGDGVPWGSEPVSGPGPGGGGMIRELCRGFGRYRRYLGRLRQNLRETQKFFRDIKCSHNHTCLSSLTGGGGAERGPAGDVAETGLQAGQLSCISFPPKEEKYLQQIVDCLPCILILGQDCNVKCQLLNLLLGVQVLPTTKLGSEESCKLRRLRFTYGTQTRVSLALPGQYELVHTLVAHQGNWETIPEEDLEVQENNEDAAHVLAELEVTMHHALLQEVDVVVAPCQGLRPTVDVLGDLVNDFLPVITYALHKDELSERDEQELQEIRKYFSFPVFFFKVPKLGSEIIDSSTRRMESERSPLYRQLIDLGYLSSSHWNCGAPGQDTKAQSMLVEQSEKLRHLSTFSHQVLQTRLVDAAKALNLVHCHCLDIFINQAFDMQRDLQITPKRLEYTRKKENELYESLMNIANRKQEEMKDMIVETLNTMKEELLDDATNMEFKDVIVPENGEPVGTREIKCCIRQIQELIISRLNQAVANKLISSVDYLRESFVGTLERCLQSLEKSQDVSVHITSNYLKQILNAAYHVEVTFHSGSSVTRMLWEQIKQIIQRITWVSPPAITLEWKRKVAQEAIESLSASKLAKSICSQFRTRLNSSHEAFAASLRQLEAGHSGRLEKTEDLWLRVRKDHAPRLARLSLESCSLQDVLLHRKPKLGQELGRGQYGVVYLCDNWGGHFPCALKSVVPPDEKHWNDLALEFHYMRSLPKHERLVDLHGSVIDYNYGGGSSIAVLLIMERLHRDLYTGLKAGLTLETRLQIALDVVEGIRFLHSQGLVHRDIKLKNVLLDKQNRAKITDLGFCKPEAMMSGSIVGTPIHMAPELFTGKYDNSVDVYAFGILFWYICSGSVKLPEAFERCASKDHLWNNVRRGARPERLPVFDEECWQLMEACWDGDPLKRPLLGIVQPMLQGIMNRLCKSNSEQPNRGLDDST
T7 sequence (P53778 whole entry): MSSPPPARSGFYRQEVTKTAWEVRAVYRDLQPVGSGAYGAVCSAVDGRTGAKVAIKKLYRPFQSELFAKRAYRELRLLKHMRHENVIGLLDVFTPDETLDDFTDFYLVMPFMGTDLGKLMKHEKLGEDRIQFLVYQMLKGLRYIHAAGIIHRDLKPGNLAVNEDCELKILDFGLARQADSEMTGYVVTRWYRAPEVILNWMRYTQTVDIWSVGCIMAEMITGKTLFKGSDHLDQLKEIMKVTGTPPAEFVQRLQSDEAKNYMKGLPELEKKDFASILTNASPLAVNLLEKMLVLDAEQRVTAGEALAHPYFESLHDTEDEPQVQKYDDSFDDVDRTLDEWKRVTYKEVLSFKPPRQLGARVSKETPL
ACVR2A, sequence (P27037 whole entry): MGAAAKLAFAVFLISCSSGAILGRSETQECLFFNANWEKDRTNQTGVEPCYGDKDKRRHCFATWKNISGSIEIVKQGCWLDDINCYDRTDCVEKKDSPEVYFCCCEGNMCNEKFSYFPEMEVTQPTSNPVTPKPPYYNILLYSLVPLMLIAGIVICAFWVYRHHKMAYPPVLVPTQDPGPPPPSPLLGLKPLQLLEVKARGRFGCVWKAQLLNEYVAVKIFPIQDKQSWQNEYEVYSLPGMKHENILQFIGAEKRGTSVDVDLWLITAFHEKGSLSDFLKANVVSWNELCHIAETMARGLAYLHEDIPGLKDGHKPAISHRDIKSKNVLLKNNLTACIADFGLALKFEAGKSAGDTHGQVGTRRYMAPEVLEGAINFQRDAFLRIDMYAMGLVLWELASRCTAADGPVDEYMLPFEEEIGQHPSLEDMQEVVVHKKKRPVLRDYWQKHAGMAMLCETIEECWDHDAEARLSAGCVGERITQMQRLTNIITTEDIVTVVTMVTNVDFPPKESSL
PIM1, sequence (P11309 whole entry): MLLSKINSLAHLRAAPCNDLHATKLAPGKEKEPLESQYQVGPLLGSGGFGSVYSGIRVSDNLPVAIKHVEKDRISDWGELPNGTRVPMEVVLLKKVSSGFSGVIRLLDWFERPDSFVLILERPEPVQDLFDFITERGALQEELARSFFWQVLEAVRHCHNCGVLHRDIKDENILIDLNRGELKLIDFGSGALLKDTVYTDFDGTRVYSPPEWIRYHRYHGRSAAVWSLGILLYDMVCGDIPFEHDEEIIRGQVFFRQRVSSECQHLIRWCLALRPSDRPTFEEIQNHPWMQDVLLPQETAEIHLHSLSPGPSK

Compound: O=C(/C=C/c1cnccc1-c1ccc(F)cc1)Nc1ccc(CCc2nnco2)cc1 [T-418, (2E)-3-(4-(4-fluorophenyl)pyridin-3-yl)-N-(4-(2-(1,3,4-oxadiazol-2-yl)ethyl)phenyl)acrylamide]
- remaining binding at 0.3 µM ([1]; sheet T-418): 100%
- remaining binding at 0.3 µM ([2]; sheet T-418): 86%
- remaining binding at 0.3 µM ([3]; sheet T-418): 100%
- remaining binding at 0.3 µM ([4]; sheet T-418): 76%
- remaining binding at 0.3 µM ([5]; sheet T-418): 87%
- remaining binding at 0.3 µM ([6]; sheet T-418): 100%
- remaining binding at 0.3 µM ([7]; sheet T-418): 97%
- remaining binding at 0.3 µM ([8]; sheet T-418): 100%
- remaining binding at 0.3 µM ([9]; sheet T-418): 100%
- remaining binding at 0.3 µM ([10]; sheet T-418): 100%
- remaining binding at 0.3 µM ([11]; sheet T-418): 100%
- remaining binding at 0.3 µM ([12]; sheet T-418): 100%
- remaining binding at 0.3 µM ([13]; sheet T-418): 91%
- remaining binding at 0.3 µM ([14]; sheet T-418): 100%
- remaining binding at 0.3 µM ([15]; sheet T-418): 100%
- remaining binding at 0.3 µM ([16]; sheet T-418): 100%
- remaining binding at 0.3 µM ([17]; sheet T-418): 75%
- remaining binding at 0.3 µM ([18]; sheet T-418): 88%
- remaining binding at 0.3 µM ([19]; sheet T-418): 92%
- remaining binding at 0.3 µM ([20]; sheet T-418): 68%
- remaining binding at 0.3 µM ([21]; sheet T-418): 100%
- remaining binding at 0.3 µM ([22]; sheet T-418): 86%

Compound: Cc1ncccc1Oc1sc(C(N)=O)c2c1-c1c(cnn1C)CC2 [T-474, 1-methyl-8-((2-methylpyridin-3-yl)oxy)-4,5-dihydro-1H-thieno[3,4-g]indazole-6-carboxamide]
- remaining binding at 0.3 µM [1]: 100%
- remaining binding at 0.3 µM [2]: 100%
- remaining binding at 0.3 µM [3]: 100%
- remaining binding at 0.3 µM [4]: 94%
- remaining binding at 0.3 µM [5]: 100%
- remaining binding at 0.3 µM [6]: 100%
- remaining binding at 0.3 µM [7]: 97%
- remaining binding at 0.3 µM [8]: 100%
- remaining binding at 0.3 µM [9]: 100%
- remaining binding at 0.3 µM [10]: 100%
- remaining binding at 0.3 µM [11]: 100%
- remaining binding at 0.3 µM [12]: 100%
- remaining binding at 0.3 µM [13]: 87%
- remaining binding at 0.3 µM [14]: 100%
- remaining binding at 0.3 µM [15]: 100%
- remaining binding at 0.3 µM [16]: 84%
- remaining binding at 0.3 µM [17]: 92%
- remaining binding at 0.3 µM [18]: 76%
- remaining binding at 0.3 µM [19]: 98%
- remaining binding at 0.3 µM [20]: 72%
- remaining binding at 0.3 µM [21]: 83%
- remaining binding at 0.3 µM [22]: 100%
